Counter-ions that a name gives are not always drawn. Where a SMILES comes first, the peptide text is derived from it. [ ]: non-standard residue; d: D form. Arg(Me) = CNC(=N)NCCC[C@H](N)C(=O)O; d4Pal = N[C@H](Cc1ccncc1)C(=O)O; azaGly = NNC(=O)O
Tested on: Hepatocyte spheroids
Assay: This assay model using primary human hepatocyte (PHH) spheroids, which are cultured in Williams E medium. After spheroid formation, cells are exposed to compounds in an FBS-free culture medium. […] Imaging is performed on an Opera Phenix High-Content Screening System, allowing quantification of proliferation as a readout for evaluating the effects of chemical probes on hepatocyte regeneration.
Type: functional
Conditions: read-out: Cell Viability; for viability at 1 µM: Concentration 1 uM; for viability at 10 µM: Concentration 10 uM; for viability at 0.1 µM: Concentration 0.1 uM

Structure (SMILES) | viability at 1 µM | viability at 10 µM | viability at 20 µM (Concentration 20 uM) | viability at 0.1 µM
CCC(F)(F)c1cc(N2CCC(S(C)(=O)=O)CC2)nc2sc(C(N)=O)c(N)c12 [BI-605906] | 103% (non-toxic) | 134% (non-toxic) |  | 
O=c1nc(-c2ccccn2)sc2ccccc12 [BTZO-1] | 99.7% (non-toxic) | 73.5% (non-toxic) |  | 
C=CC(=O)Nc1ccc2[nH]c(=O)n(C3CCN(Cc4ccc(-c5nc6cc[nH]c(=O)c6cc5-c5ccccc5)cc4)CC3)c2c1 [Borussertib] | 48.8% (toxic) | 16% (toxic) |  | 
CN(C)CCCN1c2ccccc2Sc2ccc(Cl)cc21 [CHLORPROMAZINE HYDROCHLORIDE] |  |  | 0.683% (toxic) | 
CNC(=O)c1ccc(Nc2ncc(C(F)(F)F)c(NCc3nccnc3N(C)S(C)(=O)=O)n2)cc1 [DEFACTINIB] | 55.4% (toxic) |  |  | 46.1% (toxic)
Cn1c(C2(NC(=O)c3ccc4c(C5CCCC5)c(-c5ncc(Br)cn5)n(C)c4c3)CCC2)nc2ccc(/C=C/C(=O)O)cc21 [DELEOBUVIR] | 135% (non-toxic) | 157% (non-toxic) |  | 
C[C@@H](NC(=O)Nc1cc2[nH]ncc2c(CO)n1)c1ccccc1 [ERKi] | 75% (non-toxic) | 75.2% (non-toxic) |  | 
O=C(NCCN1CCOCC1)c1ccc2c(c1)C(=O)c1ccc(Nc3ccc(F)c(NC(=O)c4ccccc4)c3)cc1CC2 [FS-694] | 74.8% (non-toxic) | 84.2% (non-toxic) |  | 
CC(=O)Nc1c(F)cc(C(=O)N[C@H]2CC[C@H](O)CC2)cc1O[C@@H](C)c1ccccc1 [GSK046] | 96.7% (non-toxic) | 85.2% (non-toxic) |  | 
CNC(=O)c1cc(C(=O)NC2CC2)cn(Cc2ccccc2)c1=O [GSK620] | 117% (non-toxic) | 85.9% (non-toxic) |  | 
COCc1nc2cnc3cc(-c4c(C)noc4C)c(OC[C@H]4CCNC4)cc3c2n1[C@H](C)c1ccccc1 [GSK778] | 118% (non-toxic) | 64% (toxic) |  | 
Cc1cc2c(-c3ccco3)cnc(N[C@@H]3CCN(C)C[C@H]3C(=O)NC3CCCCC3)c2[nH]c1=O [GSK789] | 52.2% (toxic) | 27.6% (toxic) |  | 
CNC(=O)c1cc(C(=O)N[C@H]2[C@@H]3COC[C@@H]32)cc2c1O[C@H](CF)[C@H]2c1ccccc1 [GSK973] | 103% (non-toxic) | 88.7% (non-toxic) |  | 
COCCc1ccc(-c2c(C)nc3c(N4CCOCC4)ccnn23)cn1 [JNJ-42396302] | 158% (non-toxic) | 160% (non-toxic) |  | 
COc1nc2ccc([C@@](O)(c3ccccc3)C3CCN(C(C)=O)CC3)cc2c(Cl)c1Cc1ccc(-n2cccn2)cc1 [JNJ-54119936] | 116% (non-toxic) | 114% (non-toxic) |  | 
CC(=O)Nc1ncc(CN2CCC[C@H](Cc3cc(C)nc(C)c3)C2)s1 [JNJ-65355394] | 149% (non-toxic) | 142% (non-toxic) |  | 
CNC(=N)NCCC[C@H](NC(=O)[C@H](CC(C)C)NC(=O)NNC(=O)[C@H](Cc1ccccc1)NC(=O)[C@H](CO)NC(=O)[C@H](CC(N)=O)NC(=O)[C@@H](Cc1ccncc1)NC(=O)[C@H](N)Cc1ccc(O)cc1)C(=O)N[C@@H](Cc1ccccc1)C(N)=O [KISS1-305] (H-[dY][d4Pal]NSF[azaGly]L[Arg(Me)]F-NH2) | 98.4% (non-toxic) |  |  | 107% (non-toxic)
CN([C@@H]1CCc2c(CC(=O)O)c3ccccc3n2C1)S(=O)(=O)c1ccc(F)cc1 [MK-7246] | 107% (non-toxic) | 111% (non-toxic) |  | 
C[C@@H]1CN(c2cc(-c3n[nH]c4ccc(OC5(C)CC5)cc34)ncn2)C[C@H](C)O1 [MLi-2] | 79.7% (non-toxic) |  |  | 79.3% (non-toxic)
O=S(=O)(NC1CCC(c2cc(F)ccc2F)(S(=O)(=O)c2ccc(Cl)cc2)CC1)C(F)(F)F (centres undefined) [MRK-560] | 76.1% (non-toxic) |  |  | 101% (non-toxic)

Reference: ChEMBL document CHEMBL5608109, “Hepatotoxicity screening of Donated Chemical Probes” (2024)
